Test results: ChEMBL document CHEMBL3885861, “Open TG-GATES”
*1 amine or outer side, *2 acyl side, *3 side chain or, on linkers, in order; H or OH if unused. Where a SMILES comes first, the peptide text is derived from it. Bridges are numbered along the chain shown (N, C = ends). [ ]: non-standard residue; d: D form. Trp(2-yl) = O=C([C@H](Cc1c([*:3])[nH]c2ccccc12)N[*:1])[*:2]; Leu(4R-OH,5-OH) = C[C@](O)(CO)C[C@H](N)C(=O)O; cisHyp = O=C(O)[C@@H]1C[C@H](O)CN1

Organism: Rattus norvegicus
Assay: Open TG-GATES - Regimen: Single
Format: toxicity, organism-based, Sprague-Dawley
Design: regimen Single, gender Male, age 6 weeks
Conditions: in vivo, ip, 1 mg/kg, route intraperitoneal injection, dose level High; for APTT / Bas / Eos / Fbg / Hb / Ht / Lym / MCH / MCHC / MCV / Mono / Neu / PT / Plat / RBC / Ret / WBC: tissue Blood; for KIDNEY_L / KIDNEY_R / KIDNEY_TOTAL: tissue Kidney; for LIVER: tissue Liver; for A/G / ALP / ALT / AST / BUN / CRE / Ca / Cl / DBIL / GLC / IP / K / LDH / Na / PL / RALB / TBIL / TC / TG / TP / gamma-GTP: tissue Plasma

C[C@@H]1NC(=O)[C@H](C[C@@](C)(O)CO)NC(=O)[C@@H]2Cc3c([nH]c4ccccc34)SC[C@H](NC(=O)[C@@H]([C@H](C)O)NC1=O)C(=O)N1C[C@@H](O)C[C@H]1C(=O)N[C@@H](C)C(=O)N2 [PHALLOIDIN] (cyclo(A[dT]C[cisHyp]A[Trp(2-yl)][Leu(4R-OH,5-OH)]); thioether 3-6)
TERMINAL_BW (3 h): 211.9 g
APTT (3 h): 21.8 s
Bas (3 h): 0%
Eos (3 h): 0%
Fbg (3 h): 259.6 mg/dL
Hb (3 h): 12.4 g/dL
Ht (3 h): 39.5%
Lym (3 h): 73.8%
MCH (3 h): 20 pg
MCHC (3 h): 31.5%
MCV (3 h): 63.3 fL
Mono (3 h): 2.6%
Neu (3 h): 22.6%
PT (3 h): 15.9 s
Plat (3 h): 108.1 x10_4/uL
RBC (3 h): 623.8 x10_4/ul
Ret (3 h): 7.7%
WBC (3 h): 66 x10_2/uL
KIDNEY_L (3 h): 1 g
KIDNEY_R (3 h): 1 g
KIDNEY_TOTAL (3 h): 2 g
LIVER (3 h): 9.1 g
A/G (3 h): 1.2
ALP (3 h): 1810.8 IU/L
ALT (3 h): 49.6 IU/L
AST (3 h): 110 IU/L
BUN (3 h): 12 mg/dL
CRE (3 h): 0.2 mg/dL
Ca (3 h): 10.4 mg/dL
Cl (3 h): 107.8 meq/L
DBIL (3 h): 0.006 mg/dL
GLC (3 h): 184.8 mg/dL
IP (3 h): 8.6 mg/dL
K (3 h): 4 meq/L
LDH (3 h): 235.2 IU/L
Na (3 h): 139.6 meq/L
PL (3 h): 125.8 mg/dL
RALB (3 h): 2.7 g/dL
TBIL (3 h): 0.012 mg/dL
TC (3 h): 78.6 mg/dL
TG (3 h): 36.2 mg/dL
TP (3 h): 4.9 g/dL
gamma-GTP (3 h): 1.6 IU/L
TERMINAL_BW (6 h): 210 g
APTT (6 h): 22.3 s
Bas (6 h): 0%
Eos (6 h): 0.2%
Fbg (6 h): 286.6 mg/dL
Hb (6 h): 12.5 g/dL
Ht (6 h): 39.2%
Lym (6 h): 79.6%
MCH (6 h): 20 pg
MCHC (6 h): 31.9%
MCV (6 h): 62.6 fL
Mono (6 h): 2%
Neu (6 h): 17.4%
PT (6 h): 15.9 s
Plat (6 h): 111.9 x10_4/uL
RBC (6 h): 626 x10_4/ul
Ret (6 h): 6.8%
WBC (6 h): 90.8 x10_2/uL
KIDNEY_L (6 h): 0.9 g
KIDNEY_R (6 h): 1 g
KIDNEY_TOTAL (6 h): 1.9 g
LIVER (6 h): 9.2 g
A/G (6 h): 1.3
ALP (6 h): 1613.8 IU/L
ALT (6 h): 56.6 IU/L
AST (6 h): 114.6 IU/L
BUN (6 h): 14.8 mg/dL
CRE (6 h): 0.2 mg/dL
Ca (6 h): 10.3 mg/dL
Cl (6 h): 106.2 meq/L
DBIL (6 h): 0 mg/dL
GLC (6 h): 186.4 mg/dL
IP (6 h): 7.6 mg/dL
K (6 h): 3.9 meq/L
LDH (6 h): 232 IU/L
Na (6 h): 142 meq/L
PL (6 h): 141 mg/dL
RALB (6 h): 2.9 g/dL
TBIL (6 h): 0.004 mg/dL
TC (6 h): 90.4 mg/dL
TG (6 h): 65.8 mg/dL
TP (6 h): 5.1 g/dL
gamma-GTP (6 h): 1.8 IU/L
TERMINAL_BW (9 h): 208.3 g
APTT (9 h): 20.7 s
Bas (9 h): 0%
Eos (9 h): 0.4%
Fbg (9 h): 291.6 mg/dL
Hb (9 h): 12.3 g/dL
Ht (9 h): 39.3%
Lym (9 h): 80.6%
MCH (9 h): 20.2 pg
MCHC (9 h): 31.4%
MCV (9 h): 64.4 fL
Mono (9 h): 2.4%
Neu (9 h): 15.4%
PT (9 h): 15.3 s
Plat (9 h): 114.2 x10_4/uL
RBC (9 h): 610.4 x10_4/ul
Ret (9 h): 7.8%
WBC (9 h): 75 x10_2/uL
KIDNEY_L (9 h): 0.9 g
KIDNEY_R (9 h): 0.9 g
KIDNEY_TOTAL (9 h): 1.9 g
LIVER (9 h): 9.2 g
A/G (9 h): 1.3
ALP (9 h): 1636.4 IU/L
ALT (9 h): 56.8 IU/L
AST (9 h): 109.6 IU/L
BUN (9 h): 12.8 mg/dL
CRE (9 h): 0.2 mg/dL
Ca (9 h): 10.4 mg/dL
Cl (9 h): 106.4 meq/L
DBIL (9 h): 0 mg/dL
GLC (9 h): 180.4 mg/dL
IP (9 h): 7.9 mg/dL
K (9 h): 4.3 meq/L
LDH (9 h): 158.2 IU/L
Na (9 h): 140.4 meq/L
PL (9 h): 144 mg/dL
RALB (9 h): 2.9 g/dL
TBIL (9 h): 0.008 mg/dL
TC (9 h): 97.4 mg/dL
TG (9 h): 63.2 mg/dL
TP (9 h): 5.1 g/dL
gamma-GTP (9 h): 1.6 IU/L
TERMINAL_BW (24 h): 220.3 g
APTT (24 h): 21.7 s
Bas (24 h): 0%
Eos (24 h): 0.8%
Fbg (24 h): 304.4 mg/dL
Hb (24 h): 12.5 g/dL
Ht (24 h): 39.6%
Lym (24 h): 81.2%
MCH (24 h): 20.3 pg
MCHC (24 h): 31.7%
MCV (24 h): 64 fL
Mono (24 h): 1.8%
Neu (24 h): 15.6%
PT (24 h): 15.4 s
Plat (24 h): 119.9 x10_4/uL
RBC (24 h): 619.8 x10_4/ul
Ret (24 h): 7.6%
WBC (24 h): 71.5 x10_2/uL
KIDNEY_L (24 h): 1 g
KIDNEY_R (24 h): 1 g
KIDNEY_TOTAL (24 h): 2.1 g
LIVER (24 h): 10.2 g
A/G (24 h): 1.2
ALP (24 h): 1849.4 IU/L
ALT (24 h): 45 IU/L
AST (24 h): 81.6 IU/L
BUN (24 h): 15.2 mg/dL
CRE (24 h): 0.1 mg/dL
Ca (24 h): 10.7 mg/dL
Cl (24 h): 106.8 meq/L
DBIL (24 h): 0.002 mg/dL
GLC (24 h): 189.2 mg/dL
IP (24 h): 8.2 mg/dL
K (24 h): 4.4 meq/L
LDH (24 h): 191 IU/L
Na (24 h): 141.6 meq/L
PL (24 h): 147.2 mg/dL
RALB (24 h): 2.8 g/dL
TBIL (24 h): 0.002 mg/dL
TC (24 h): 95.8 mg/dL
TG (24 h): 74 mg/dL
TP (24 h): 5.3 g/dL
gamma-GTP (24 h): 1.6 IU/L
